Assay results taken from ChEMBL document CHEMBL4270652, “Design, synthesis, and biological activity of substituted 2-amino-5-oxo-5H-chromeno[2,3-b]pyridine-3-carboxylic acid derivatives as inhibitors of the inflammatory kinases TBK1 and IKKε for the treatment of obesity” (Bioorg Med Chem, 2018).
≈ marks a conversion by molar mass, not a printed value. Calls of active or inactive are those of the source. The calls are words filed in the database; no cut-off is given here.

Key:
physchem = conditions: PBS, pH 7.4
Description: Thermodynamic aqueous solubility in PBS of pH 7.4 after overnight incubation by chemiluminescent nitrogen detection

Mus musculus [1] = test: Antiobesity activity in C57BL/6 obese mouse model assessed as body weight loss at 25 mg/kg administered daily via oral gavage measured post 4 weeks of treatment; format: functional, organism-based
Mus musculus [2] = test: Increase in serum IL6 levels in C57BL/6 obese mouse model at 25 mg/kg administered via oral gavage measured 6 hrs post treatment by ELISA; format: functional, organism-based
Mus musculus [3] = test: Antidiabetic activity in C57BL/6 obese mouse model assessed as reduction in blood glucose level at 25 mg/kg administered daily via oral gavage measured post 3 weeks of treatment by glucose tolerance test; format: functional, organism-based
Mus musculus [4] = test: Induction of insulin-induced hypoglycemia in C57BL/6 obese mouse model at 25 mg/kg administered daily via oral gavage measured post 4 weeks of treatment by insulin tolerance test; format: functional, organism-based

Row | SMILES | solubility thermodynamic (physchem) | also measured
1 | CC(C)c1ccc2c(=O)c3cc(C(=O)O)c(N)nc3oc2c1 | 19.1 µM (≈ 5.7 µg/mL) | –
2 | CC(C)Cc1ccc2oc3nc(N)c(C(=O)O)cc3c(=O)c2c1 | 179 µM (≈ 55.8 µg/mL) | –
3 | Nc1nc2oc3ccc(C4CCCCC4)cc3c(=O)c2cc1C(=O)O | 94.4 µM (≈ 31.9 µg/mL) | Activity (Mus musculus [1]): Active; Activity (Mus musculus [2]): Active; Activity (Mus musculus [3]): Active; Activity (Mus musculus [4]): Active
4 | CC(C)c1ccc2oc3nc(N)c(C(=O)O)cc3c(=O)c2c1 | – | Activity (Mus musculus [2]): Active; Activity (Mus musculus [3]): Active; Activity (Mus musculus [4]): Active
5 | CC(=O)N1CCC(c2ccc3oc4nc(N)c(C(=O)O)cc4c(=O)c3c2)CC1 | 121 µM (≈ 46 µg/mL) | –
6 | Nc1nc2oc3ccc(C4CCC(=O)CC4)cc3c(=O)c2cc1C(=O)O | < 1.1 µM | –
7 | CC(C)CCc1ccc2oc3nc(N)c(C(=O)O)cc3c(=O)c2c1 | 119 µM (≈ 38.8 µg/mL) | –
8 | CC(C)c1cc2c(=O)c3cc(C(=O)O)c(N)nc3oc2cc1F | 13.7 µM (≈ 4.33 µg/mL) | –
9 | CN(C)c1ccc2oc3nc(N)c(C(=O)O)cc3c(=O)c2c1 | 76.8 µM (≈ 23 µg/mL) | –
10 | Nc1nc2oc3ccc(C4CCSCC4)cc3c(=O)c2cc1C(=O)O | 61.3 µM (≈ 21.8 µg/mL) | –
11 | CC(C)c1cc2c(=O)c3cc(C(=O)O)c(N)nc3oc2cn1 | 77.9 µM (≈ 23.3 µg/mL) | –
12 | CC(C)c1cccc2oc3nc(N)c(C(=O)O)cc3c(=O)c12 | 229 µM (≈ 68.4 µg/mL) | –
